Data as given in US20100316529A1, “Anti-Microbial Systems and Methods” (priority 2001, published 2010).
“And” between values parts separate entries of the source, which are not always exact repeats. Identical values can stand only once.

Experiments:
[1] = system: Ent. cloacae; test: EDTA salt dilution test, MIC/MBC; type: cell-based; conditions: three entries
[2] = system: Steno. maltophilia; test: EDTA salt dilution test, MIC/MBC; type: cell-based
[3] = system: Cornyeform amycolatum; test: EDTA salt dilution test, MIC/MBC; type: cell-based
[4] = system: Ent. faeculm; test: EDTA salt dilution test, MIC/MBC; type: cell-based
[5] = system: Kleb. oxytoca; test: EDTA salt dilution test, MIC/MBC; type: cell-based
[6] = system: Kleb. ornitholytica; test: EDTA salt dilution test, MIC/MBC; type: cell-based
[7] = system: Proteus vulgaris; test: EDTA salt dilution test, MIC/MBC; type: cell-based
[8] = system: C. lucitaniae; test: EDTA agar dilution method, yeasts, MIC/MBC; type: cell-based; conditions: Exhibit C
Text: (§1) Protocol 3: Agar dilutions.
Do this until all the media is used up.

[9] = system: C. tropicalis; test: EDTA agar dilution method, yeasts, MIC/MBC; type: cell-based; conditions: Exhibit C
Protocol: (§2) The bactericidal effects were measured as the Minimum Bactericidal Concentration (MBC), while the inhibitory effects were measured as the Minimum Inhibitory Concentration (MIC). In each case, the concentration was measured as milligrams of the disinfectant salt per milliliter of water (mg/ml).
as §1
(§3) Prepare nutrient agar plates with increasing concentrations of EDTA, 0, 0.5, 1, 1.5, 2, 4, 6, 8, 10, 15, 20, 25, 30 mg/mL, using the following method. • Pour 300 mL distilled water into a sterile glass bottle. • Add the appropriate amount of EDTA. This is the concentration desired ×300, in grams. • Once the EDTA has fully dissolved, add 8.4 g of Nutrient agar powder (Oxoid). Mix thoroughly. • Do this for each concentration of EDTA required. […] Do this until all the media is used up. Label the plates with the concentration of EDTA they contain. • These plates can then be stored, until they are needed, in a 4° C. fridge. • Use an automatic plate inoculator to inoculate each plate with 21 organisms.

[10] = system: C. guilliermondii; test: EDTA agar dilution method, yeasts, MIC/MBC; type: cell-based; conditions: Exhibit C
Protocol: as §2, §1, §3

[11] = system: C. albicans; test: EDTA agar dilution method, yeasts, MIC/MBC; type: cell-based; conditions: three entries, Exhibit C
Protocol: as §2, §1, §3

[12] = system: C. parapsilosis; test: EDTA agar dilution method, yeasts, MIC/MBC; type: cell-based; conditions: Exhibit C
Protocol: as §2, §1, §3

[13] = system: C. glabrata; test: EDTA agar dilution method, yeasts, MIC/MBC; type: cell-based; conditions: two entries, Exhibit C
Protocol: as §2, §1, §3

[14] = system: variety of yeasts
[15] = system: Acinetobacter baumanii; test: EDTA salt dilution test, MIC/MBC; type: cell-based; conditions: two entries, Exhibit A2
[16] = system: Coryneform strait/amy; test: EDTA salt dilution test, MIC/MBC; type: cell-based
[17] = system: Kleb. pnemoniae; test: EDTA salt dilution test, MIC/MBC; type: cell-based; conditions: two entries
[18] = system: S. aureus; test: EDTA salt dilution test, MIC/MBC; type: cell-based; conditions: five entries, Exhibit A2
[19] = system: Proteus mirabilis; test: EDTA salt dilution test, MIC/MBC; type: cell-based; conditions: two entries
[20] = system: Ent. faecalis; test: EDTA salt dilution test, MIC/MBC; type: cell-based
[21] = system: Pseudomonas aeruginosa; test: EDTA salt dilution test, MIC/MBC; type: cell-based; conditions: two entries
[22] = system: S. xylosus; test: EDTA salt dilution test, MIC/MBC; type: cell-based
[23] = system: S. capitis; test: EDTA salt dilution test, MIC/MBC; type: cell-based; conditions: two entries, Exhibit A2
[24] = system: S. simulans; test: EDTA salt dilution test, MIC/MBC; type: cell-based
[25] = system: VRE; test: EDTA salt dilution test, MIC/MBC; type: cell-based; conditions: two entries
[26] = system: Pseudomonas sp.; test: EDTA salt dilution test, MIC/MBC; type: cell-based
[27] = system: S. epidermidis; test: EDTA salt dilution test, MIC/MBC; type: cell-based; conditions: two entries
[28] = system: MRSA; test: EDTA salt dilution test, MIC/MBC; type: cell-based; conditions: five entries, Exhibit A2
[29] = system: S. lentus; test: EDTA salt dilution test, MIC/MBC; type: cell-based

Structure (SMILES): O=C([O-])CN(CCN(CC(=O)[O-])CC(=O)[O-])CC(=O)[O-].[Na+].[Na+].[Na+].[Na+] [Tetrasodium EDTA]
- MBC, minimum concentration required to kill an entire population ([1]; Exhibit A1): 20000 µg/mL
- MIC, minimum concentration required to inhibit growth ([1]; Exhibit A2): 8000 µg/mL and 10000 µg/mL
- MBC, minimum concentration required to kill an entire population ([2]; Exhibit A1): 4000 µg/mL
- MIC, minimum concentration required to inhibit growth ([2]; Exhibit A2): 1000 µg/mL
- MBC, minimum concentration required to kill an entire population ([3]; Exhibit A1): <500 µg/mL
- MIC, minimum concentration required to inhibit growth ([3]; Exhibit A2): <500 µg/mL
- MIC, minimum concentration required to inhibit growth ([4]; Ent. faecuim, Exhibit A2): <500 µg/mL
- MBC, minimum concentration required to kill an entire population ([4]; Ent. faeculm, Exhibit A1): >30000 µg/mL
- MBC, minimum concentration required to kill an entire population ([5]; Exhibit A1): 8000 µg/mL
- MIC, minimum concentration required to inhibit growth ([5]; Exhibit A2): 4000 µg/mL
- MBC, minimum concentration required to kill an entire population ([6]; Exhibit A1): 30000 µg/mL
- MIC, minimum concentration required to inhibit growth ([6]; Exhibit A2): 4000 µg/mL
- MBC, minimum concentration required to kill an entire population ([7]; Exhibit A1): 20000 µg/mL
- MIC, minimum concentration required to inhibit growth ([7]; Exhibit A2): 4000 µg/mL
- MBC's, Minimum Bactericidal Concentration [8]: 6000 µg/mL
- MIC's, Minimum Inhibitory Concentration [8]: 500 µg/mL
- MBC's, Minimum Bactericidal Concentration [9]: 10000 µg/mL
- MIC's, Minimum Inhibitory Concentration [9]: 500 µg/mL
- MBC's, Minimum Bactericidal Concentration [10]: 500 µg/mL
- MIC's, Minimum Inhibitory Concentration [10]: 500 µg/mL
- MIC's, Minimum Inhibitory Concentration [11]: 500 µg/mL
- MBC's, Minimum Bactericidal Concentration [12]: 8000 µg/mL
- MIC's, Minimum Inhibitory Concentration [12]: 500 µg/mL
- MIC's, Minimum Inhibitory Concentration [13]: 500 µg/mL
- MIC values compared with the other two EDTA compounds ([14]; Exhibit C): lower than the MIC values for the other two EDTA compounds
- MBC values against yeasts compared with bacteria ([14]; Exhibit C versus Gram negative and Gram positive organisms): comparable to the MBC values for the Gram negative and Gram positive organisms
- MIC, minimum concentration required to inhibit growth [15]: <500 µg/mL and 1000 µg/mL
- MBC, minimum concentration required to kill an entire population ([16]; Exhibit A1): <500 µg/mL
- MIC, minimum concentration required to inhibit growth ([16]; Exhibit A2): <500 µg/mL
- MBC, minimum concentration required to kill an entire population ([17]; Exhibit A1): 15000 µg/mL
- MIC, minimum concentration required to inhibit growth ([17]; Exhibit A2): 8000 µg/mL and 4000 µg/mL
- MIC, minimum concentration required to inhibit growth [18]: <500 µg/mL and 1000 µg/mL
- MBC, minimum concentration required to kill an entire population ([19]; Exhibit A1): 20000 µg/mL
- MIC, minimum concentration required to inhibit growth ([19]; Exhibit A2): 1000 µg/mL
- MBC, minimum concentration required to kill an entire population ([20]; Exhibit A1): 10000 µg/mL
- MIC, minimum concentration required to inhibit growth ([20]; Exhibit A2): 1000 µg/mL
- MBC, minimum concentration required to kill an entire population ([21]; Exhibit A1): 20000 µg/mL
- MIC, minimum concentration required to inhibit growth ([21]; Exhibit A2): 2000 µg/mL
- MBC, minimum concentration required to kill an entire population ([22]; Exhibit A1): 25000 µg/mL
- MIC, minimum concentration required to inhibit growth ([22]; Exhibit A2): <500 µg/mL
- MIC, minimum concentration required to inhibit growth [23]: 1000 µg/mL and <500 µg/mL
- MBC, minimum concentration required to kill an entire population ([24]; Exhibit A1): 30000 µg/mL
- MIC, minimum concentration required to inhibit growth ([24]; Exhibit A2): 1000 µg/mL
- MBC, minimum concentration required to kill an entire population ([25]; Exhibit A1): 15000 µg/mL and >30000 µg/mL
- MIC, minimum concentration required to inhibit growth ([25]; Exhibit A2): 1000 µg/mL
- MBC, minimum concentration required to kill an entire population ([26]; Exhibit A1): 30000 µg/mL
- MIC, minimum concentration required to inhibit growth ([26]; Exhibit A2): 2000 µg/mL
- MBC, minimum concentration required to kill an entire population ([27]; Exhibit A1): 1000 µg/mL and 2000 µg/mL
- MIC, minimum concentration required to inhibit growth ([27]; Exhibit A2): 1000 µg/mL
- MIC, minimum concentration required to inhibit growth [28]: 1000 µg/mL
- MBC, minimum concentration required to kill an entire population ([29]; Exhibit A1): 30000 µg/mL
- MIC, minimum concentration required to inhibit growth ([29]; Exhibit A2): 1000 µg/mL
